The target of test [1] is T1, Human thymidine kinase 1 (TK1) (Homo sapiens, UniProt P04183).
T1 construct: His tag (from pET28b(+)) (N); made in house; host or cells: E. coli BL21-codon plus
T1 sequence (P04183 1-234): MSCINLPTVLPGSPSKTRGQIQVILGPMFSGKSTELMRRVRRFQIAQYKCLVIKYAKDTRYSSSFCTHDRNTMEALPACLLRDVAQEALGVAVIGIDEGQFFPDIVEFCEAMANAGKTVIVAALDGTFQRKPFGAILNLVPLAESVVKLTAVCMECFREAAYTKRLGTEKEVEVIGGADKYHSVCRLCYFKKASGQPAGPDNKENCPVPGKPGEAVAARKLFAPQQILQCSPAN
Description: Thymidine kinase coupled (kinetic) ATP depletion assay. The class given is biochemical. The conditions noted are these: initial velocity relative to thymidine; 100 μM conjugate. The procedure: Thymidine kinase, viral thymidine kinase, TK-1 deoxycytidine kinase, and deoxyguanosine kinase activities are determined by subjecting a first end of a linker used in synthesizing linker-substrate constructs to a first test. The first test may involve observing ADP formation, an obligatory co-product of phospho group transfer from ATP which is catalyzed by the kinase to the C5′ hydroxyl group or its equivalent in the nucleoside or nucleoside analog. Formation of ADP is followed by a coupled enzyme assay well known in the art. ADP, formed from kinase phosphorylation, is used by pyruvate kinase to generate pyruvate from phosphoenolpyruvate which in turn is converted to lactate by lactate dehydrogenase. The lactate results in the consumption of NADH which is followed spectrophotometrically. The rate of nucleoside phosphorylation is then directly related to the rate of decrease in the observed NADH signal.
TK1 was amplified using PCR with forward primer 5′-[…]-3′ and reverse primer 5′-[…]-3′. The PCR product was digested with Nde I and Hind III. An N-terminal His-tagged TK1 construct, TK1/pET28b(+), was generated by subcloning TK1 into the Nde I and Hind III sites of prokaryotic expression vector pET28b (+) (Novagen, San Diego, Calif.). TK1 was expressed from TK1/pET28b(+) using E. coli strain BL21-codon plus (Stratagene, San Diego, Calif.) and purified by Ni column chromatography.
A coupled (kinetic) ATP depletion assay was developed to measure thymidine kinase activity. The reaction contained 100 mM Tris HCl, pH 7.5, 20 mM MgCl2, 100 mM KCl, 0.4 mM PEP, 0.2 mM NADH, Pyruvate Kinase (0.7 units)/Lactate Dehydrogenase (1.0 unit) (Sigma #PO294), 2.5-10 μg Thymidine Kinase, 100 μM thymidine or thymidine-drug conjugate in a volume of 75 μl. ATP (5 mM in 25 μl H2O) was added to initiate the reaction and the velocity of ATP depletion was monitored at 340 nm continuously for 15 minutes.

Test [2] concerns tubulin. Description: Fluorescence-based microtubule polymerization assay (MPA). The conditions noted are these: mean percentage of paclitaxel or vinblastine activity; 0.75-10 micromolar. The class given is biochemical. An excerpt: Drug-linker constructs may further be screened using functional assays predictive of biological activity. […] Tubulin assembly or inhibition thereof may be monitored by fluorescence using the CytoDYNAMIX Screen™ 10 kit available from Cytoskeleton (1830 S. Acoma St., Denver, Colo.). […] Emission is monitored at 405 nm with excitation at 360 nm. […] Tubulin assembly or inhibition may also be monitored by light scattering which is approximated by the apparent absorption at 350 nm. For paclitaxel drug conjugates BSA is employed to prevent aggregation and glycerol, which is a tubulin polymerization enhancer, is omitted from the kit to increase the signal to noise ratio.
The assay kit (#BK011) was purchased from Cytoskeleton (Denver, Colo.). The assays were carried out according to the manufacturer's instructions, except that 1 mg/ml BSA (Sigma #A3059) was included in all assays. […] Parent drugs and conjugates were tested at 0.75, 1.5, 3 and 10 micromolar final concentration and results represent a comparison of conjugate and parent drug curves obtained from the linear range of the dose responses.

Test [3] addresses T2, TK2 (Homo sapiens, UniProt O00142).
T2 sequence (O00142 34-265): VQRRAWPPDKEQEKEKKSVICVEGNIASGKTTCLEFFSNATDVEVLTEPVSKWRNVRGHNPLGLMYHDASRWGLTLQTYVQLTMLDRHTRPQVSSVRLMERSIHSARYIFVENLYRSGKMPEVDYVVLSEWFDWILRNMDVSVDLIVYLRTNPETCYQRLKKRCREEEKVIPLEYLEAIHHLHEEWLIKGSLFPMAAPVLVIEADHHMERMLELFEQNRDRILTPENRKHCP
Details: unit not given here. The conditions noted are these: substrate activity, literature (Johansson et al.; Eriksson et al.; Wang et al.), source per Table 3, cited from earlier work.

The target in test [4] is deoxycytidine kinase (dCK) (Homo sapiens, UniProt P27707). The conditions noted are these: substrate activity; literature (Johansson et al.; Eriksson et al.; Wang et al.), source per Table 3; cited from earlier work.
In test [5] the target is T3, TK1 (Homo sapiens, UniProt P04183).
T3 sequence (P04183 1-234): T1 sequence (P04183 1-234)
The conditions noted are these: substrate activity; literature (Johansson et al.; Eriksson et al., BBCR 1991; 176, 586), source per Table 3; cited from earlier work.

Structures are written as SMILES. “And” between values parts separate entries of the source, which are not always exact repeats. Identical values can stand only once. Like-named read-outs stand apart in the source and are kept apart here.

Sequence of deoxycytidine kinase (dCK) (P27707 whole entry, species assumed): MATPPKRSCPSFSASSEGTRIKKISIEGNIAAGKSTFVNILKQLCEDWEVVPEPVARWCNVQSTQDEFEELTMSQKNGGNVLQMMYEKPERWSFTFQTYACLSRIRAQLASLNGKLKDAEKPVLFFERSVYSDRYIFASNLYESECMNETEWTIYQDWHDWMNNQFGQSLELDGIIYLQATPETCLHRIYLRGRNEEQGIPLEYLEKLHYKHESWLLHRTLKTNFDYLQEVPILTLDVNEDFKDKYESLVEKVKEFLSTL

As for `COc1cccc2c1C(=O)c1c(O)c3c(c(O)c1C2=O)C[C@@](O)(C(=O)CO)C[C@@H]3O[C@H]1C[C@H](NCCCN2C(=O)CC(SCCC(=O)NCCOCCOCCOCCn3c(=O)c(C)cn([C@H]4C[C@H](O)[C@@H](CO)O4)c3=O)C2=O)[C@H](O)[C@H](C)O1.O=C(O)C(F)(F)F` (some centres unmarked) [DOX-3′Alk-[MALaPEG](22)-N3-THY], in test [1], the “Ave. TK1 Kinase Act.” value is reported as “A (A<20)”.

As for `CC(=O)O[C@@]12CO[C@@H]1C[C@H](O)[C@@]1(C)C(=O)[C@H](OC(=O)NCCCCCCn3c(=O)c(C)cn([C@@H]4C[C@H](O)[C@@H](CO)O4)c3=O)C3=C(C)[C@@H](OC(=O)[C@H](O)[C@@H](NC(=O)c4ccccc4)c4ccccc4)C[C@@](O)([C@@H](OC(=O)c4ccccc4)[C@H]21)C3(C)C` [PXL-10Ca-ALK(6)-N3-αTHY], the “Ave. TK1 Kinase Act.” value in test [1] is given as “A (A<20)”. In addition, in test [2], the “Ave. MPA Act” value was “B (B=60-100)”.

With `O=c1[nH]c(=O)n([C@H]2C[C@H](O)[C@@H](CO)O2)cc1Br` [R2 = Br, R4 = H, R3 = OH], in test [3], the TK2 is reported as 10. In test [4], the dCK is listed as under 1. Besides, the TK1 in test [5] is 80.

For `Cc1cn([C@@H]2O[C@H](CO)[C@@H](O)[C@@H]2F)c(=O)[nH]c1=O` [R2 = CH3, R5 = F (FMAU), FMAU], the TK2 in test [3] was 100. For the same molecule, in test [5], the TK1 is reported as 45.

Turning to `CCc1cn([C@H]2C[C@H](O)[C@@H](CO)O2)c(=O)[nH]c1=O` [R2 = Et, R4 = H, R3 = OH], in test [3], the TK2 is listed as 10. Besides, the TK1 in test [5] was 80.

For `O=c1[nH]c(=O)n([C@H]2C[C@H](O)[C@@H](CO)O2)cc1F` [R2 = F, R4 = H, R3 = OH], the TK2 in test [3] was 90. The TK1 in test [5] was 90.

`O=c1ccn([C@H]2CC[C@@H](CO)O2)c(=O)[nH]1` [R2 = H, R4 = H, R3 = H (ddU), ddU]: in test [3], the TK2 is 2. In test [4], the dCK was under 1. Also, the TK1 in test [5] is 10.

In the case of `O=c1ccn([C@H]2C[C@H](O)[C@@H](CO)O2)c(=O)[nH]1` [R2 = H, R4 = H, R3 = OH (dU), dU], the TK2 in test [3] is 100. Also, in test [4], the dCK is given as 6. Also, the TK1 in test [5] was 100.

As for `O=c1[nH]c(=O)n([C@@H]2O[C@H](CO)[C@@H](O)[C@@H]2F)cc1I` [R2 = I, R5 = F (FIAU), FIAU], the TK2 in test [3] is 90. Further, the TK1 in test [5] is 42.

Consider `C#C[C@H]1C[C@H](n2cc(C)c(=O)[nH]c2=O)O[C@@H]1CO` [R4 = H, R3 = CCH], for which the TK2 in test [3] is under 1. In test [5], the TK1 is on record as under 1.

As to `Cc1cn([C@H]2C[C@H](CN=[N+]=[N-])[C@@H](CO)O2)c(=O)[nH]c1=O` [R4 = H, R3 = CH2N3], in test [3], the TK2 is recorded as 3. The TK1 in test [5] was 15.

Turning to `Cc1cn([C@H]2C[C@H](F)[C@@H](CO)O2)c(=O)[nH]c1=O` [R4 = H, R3 = F (FLT), FLT], the TK2 in test [3] is given as under 1. In addition, in test [4], the dCK is on record as under 1. Also, the TK1 in test [5] is 30.

Take `Cc1cn([C@H]2CC[C@@H](CO)O2)c(=O)[nH]c1=O` [R4 = H, R3 = H]: the TK2 in test [3] is recorded as 4. Further, in test [4], the dCK is under 1. The TK1 in test [5] is 40.

For the molecule `Cc1cn([C@H]2C[C@H](N=[N+]=[N-])[C@@H](CO)O2)c(=O)[nH]c1=O` [R4 = H, R3 = N3 (AZT), AZT], in test [3], the TK2 is recorded as 5. Further, the dCK in test [4] is reported as under 1. Also, the TK1 in test [5] is 50 and 40.

With `Cc1cn([C@H]2C[C@H](O)[C@@H](CO)O2)c(=O)[nH]c1=O` [R4 = H, R3 = OH (Thy), Thy], the TK2 in test [3] was 100. The dCK in test [4] is given as 2. Besides, the TK1 in test [5] is 100.

Turning to `Nc1ccn([C@H]2C[C@H](O)[C@@H](CO)O2)c(=O)n1` [R4 = H, R5 = H, R3 = OH (dC), dC], the TK2 in test [3] was 90; in test [3] (listed as R2 = H, X = C (dC)), 90; in test [3] (listed as R4 = H, R5 = H, R2 = H (dC)), 90; in test [3] (listed as β-D-dC), 93. Moreover, the TK1 in test [5] is on record as under 1.

As for `Nc1ccn([C@@H]2O[C@H](CO)[C@@H](O)[C@@H]2O)c(=O)n1` [R4 = H, R5 = OH, R3 = OH (Cytosar, AraC), AraC], the TK2 in test [3] is given as under 1. Moreover, in test [5], the TK1 is under 1.

As for `Cc1cn([C@@H]2O[C@H](CO)[C@@H](O)[C@H]2O)c(=O)[nH]c1=O` [R4 = OH, R3 = OH (RiboThymidine), RiboThymidine], the TK2 in test [3] was 3. For the same molecule, the TK1 in test [5] is 2.

Regarding `Nc1cc[nH]c(=O)n1` [R4 = OH, R5 = H, R2 = H (Cytosine), Cytosine], the TK2 in test [3] was under 1. For the same molecule, the dCK in test [4] is 20. The TK1 in test [5] is recorded as under 1.

As for `CC[C@]1(O)C[C@@H]2CN(CCc3c([nH]c4ccccc34)[C@@](C(=O)OC)(c3cc4c(cc3OC)N(C)[C@H]3[C@@](O)(C(=O)NCCCCCCN)[C@H](O)[C@]5(CC)C=CCN6CC[C@]43[C@@H]65)C2)C1` [VBL-3Am-ALK(6)-NH2], the “Ave. MPA Act” value in test [2] is “C (C>100)”.

Turning to `CC[C@]1(O)C[C@@H]2CN(CCc3c([nH]c4ccccc34)[C@@](C(=O)OC)(c3cc4c(cc3OC)N(C)[C@H]3[C@@](O)(C(=O)NCCCCCCNC(=O)OC(C)(C)C)[C@H](O)[C@]5(CC)C=CCN6CC[C@]43[C@@H]65)C2)C1` [VBL-3Am-ALK(6)-NH(B)], in test [2], the “Ave. MPA Act” value is “A (A<60)”.

Regarding `CC[C@]1(O)C[C@@H]2CN(CCc3c([nH]c4ccccc34)[C@@](C(=O)OC)(c3cc4c(cc3OC)N(C)[C@H]3[C@@](O)(C(=O)NCCCCCCCCN)[C@H](O)[C@]5(CC)C=CCN6CC[C@]43[C@@H]65)C2)C1` [VBL-3Am-ALK(8)-NH2], in test [2], the “Ave. MPA Act” value is “B (B=60-100)”.

For `CC[C@]1(O)C[C@@H]2CN(CCc3c([nH]c4ccccc34)[C@@](C(=O)OC)(c3cc4c(cc3OC)N(C)[C@H]3[C@@](O)(C(=O)NCCCCCCCCCCCCN)[C@H](O)[C@]5(CC)C=CCN6CC[C@]43[C@@H]65)C2)C1` [VBL-3Am-ALK(12)-NH2], the “Ave. MPA Act” value in test [2] is on record as “B (B=60-100)”.

Turning to `CC[C@]1(O)C[C@@H]2CN(CCc3c([nH]c4ccccc34)[C@@](C(=O)OC)(c3cc4c(cc3OC)N(C)[C@H]3[C@@](O)(C(=O)NCCCCCCCCCCCCNC(=O)OC(C)(C)C)[C@H](O)[C@]5(CC)C=CCN6CC[C@]43[C@@H]65)C2)C1` [VBL-3Am-ALK(12)-NH(B)], the “Ave. MPA Act” value in test [2] was “A (A<60)”.
